Measurements published in the METLIN SMRT retention time set (Domingo-Almenara et al. 2019).

Assay: gradient 5% acetonitrile 3 min, to 50% in 2 min, to 85% in 15 min, held 3 min, 100 µL/min
Conditions: column: Zorbax Extend-C18 2.1 x 50 mm; eluents: water / acetonitrile, 0.1% formic acid
Outline: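 Over 3 months, pure standards in mixtures of ~100 molecules were run by HPLC coupled to a quadrupole time-of-flight mass spectrometer in positive and negative ionization mode. The column was a Zorbax Extend-C18 (2.1 × 50 mm, 1.8 μm) at 100 μL/min, eluted with water and acetonitrile each holding 0.1% formic acid, with 40 μL dead and 900 μL dwell volumes. Retention time was determined from adduct peaks chosen by software and checked manually.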

SMILES: CCn1nc(CNC(=O)c2cccs2)c2ccccc21
- RP-LC retention time: 798 s

SMILES: COc1ccc(S(=O)(=O)CCC(=O)NC(C(=O)N2CCCc3ccccc32)c2ccccc2)cc1 (stereo not drawn)
- RP-LC retention time: 928 s

SMILES: CCc1cc(=O)n(CC(=O)Nc2ccc(C)c(C)c2)c(N2CCOCC2)n1
- RP-LC retention time: 798 s

SMILES: COc1ccc(Cl)cc1S(=O)(=O)N1CCC(C(=O)NCCC2=CCCCC2)CC1
- RP-LC retention time: 994 s

SMILES: COc1cccc(CNC(=O)C2(C)CCCN(C(=O)Nc3ccc(C)cc3)C2)c1 (stereo not drawn)
- RP-LC retention time: 898 s

SMILES: CCN1C(=O)C(C)(C(=O)Nc2cccc(Cl)c2)Oc2cccnc21 (stereo not drawn)
- RP-LC retention time: 982 s

SMILES: CN(C)CCCNC(=O)C1CCN(c2nc3ccc(-c4cccc(F)c4)nc3s2)CC1
- RP-LC retention time: 691 s

SMILES: CCOc1ccc(-c2nc(C3CC(=O)N(c4ccc(CC)cc4)C3)no2)cc1OCC (stereo not drawn)
- RP-LC retention time: 1180 s

SMILES: Cc1[nH]c2ccccc2c1C(=O)C(=O)NCC1COc2ccccc2O1 (stereo not drawn)
- RP-LC retention time: 832 s

SMILES: O=C(NCc1ccc2c(c1)OCO2)C1CCCN(C(=O)c2cc(-c3ccccn3)n[nH]2)C1 (stereo not drawn)
- RP-LC retention time: 655 s

SMILES: Cc1ccc(NC(=O)N2CCC(n3cnc4ccc(C)cc4c3=O)CC2)cc1
- RP-LC retention time: 801 s

SMILES: CCc1nc(-c2c(C)cc(C)nc2NC(=O)c2cccc(Br)c2)no1
- RP-LC retention time: 898 s

SMILES: Cc1ccc(C)c(CNC(=O)c2ccc(NC(=O)C3CC3)cc2N2CCOCC2)c1
- RP-LC retention time: 856 s

SMILES: CCCN1C(=O)COc2ccc(-c3noc(-c4ccc(NC(C)=O)cc4)n3)cc21
- RP-LC retention time: 948 s

SMILES: CN1CCC(OC(c2ccccc2)c2ccccc2)CC1
- RP-LC retention time: 760 s

SMILES: O=C(NCc1ccc(F)cc1)c1cc(-c2ccc(F)cc2)ns1
- RP-LC retention time: 1030 s

SMILES: O=C(CCN1C(=O)c2cccc3cccc(c23)C1=O)NC1CCS(=O)(=O)C1 (stereo not drawn)
- RP-LC retention time: 641 s

SMILES: O=C1CCCC2=C1C(c1ccco1)N(C(=O)CCC(=O)N1CCOCC1)c1ccccc1N2 (stereo not drawn)
- RP-LC retention time: 648 s

SMILES: CCOc1ccc(C2CNC(=O)C2C(=O)OC)cc1OCC (stereo not drawn)
- RP-LC retention time: 694 s

SMILES: Cc1ccc2c(c1)c(C)c(C)n2CC(O)Cn1nc(C)cc1C (stereo not drawn)
- RP-LC retention time: 933 s

SMILES: Cc1noc(C)c1S(=O)(=O)N1CCC(Cc2nncn2-c2ccccc2)CC1
- RP-LC retention time: 780 s

SMILES: Cc1ccc(CNC(=O)C2(C)CN(S(C)(=O)=O)CC(=O)N2c2cc(C)cc(C)c2)cc1 (stereo not drawn)
- RP-LC retention time: 860 s

SMILES: COc1cc(NC(=O)NC(C)C)c2ncccc2c1
- RP-LC retention time: 757 s

SMILES: CCN1C(=O)C(C)(C(=O)Nc2ccccc2F)Oc2cccnc21 (stereo not drawn)
- RP-LC retention time: 855 s

SMILES: Cc1ccc2c(Nc3ccc(C)c(C)c3)c(C(=O)N3CCSCC3)cnc2n1
- RP-LC retention time: 644 s

SMILES: CC(C)CN(Cc1cccnc1)C1CN(S(=O)(=O)Cc2ccccc2)C1
- RP-LC retention time: 719 s

SMILES: Cc1cccc(NC(=O)c2cc(C)n3nccc3n2)c1C
- RP-LC retention time: 995 s

SMILES: CC(C)COc1ccc(C(=O)N(Cc2ccc(Br)o2)C2CCS(=O)(=O)C2)cc1 (stereo not drawn)
- RP-LC retention time: 1050 s

SMILES: COc1ccc(NC(=O)Cn2c(N3CCc4ccccc4C3)nc(C)cc2=O)cc1
- RP-LC retention time: 757 s

SMILES: Cc1ccc(-c2noc(CN3N=NC4C(=O)N(c5ccc(C)cc5)C(=O)C43)n2)cc1 (stereo not drawn)
- RP-LC retention time: 1020 s

SMILES: COCc1cc2nn(CC(=O)NC3CCCC3)c(=O)n2c(-c2ccccc2)n1
- RP-LC retention time: 727 s

SMILES: O=C([C@@H]1C[C@H](F)CN1S(=O)(=O)c1cc(F)cc(F)c1)N1CCc2ccccc2C1
- RP-LC retention time: 961 s

SMILES: O=C(c1ccc2c(c1)OCO2)N1CCN(c2cc(-c3cccs3)[nH]n2)CC1
- RP-LC retention time: 732 s

SMILES: O=C(NC1CCCCCC1)C1CCCN(c2ncc(-c3ccc(F)cc3)cn2)C1 (stereo not drawn)
- RP-LC retention time: 1150 s

SMILES: CN(C)CCNC(=O)c1ccc(Cn2nc(N3CCN(c4ccc(F)cc4)CC3)ccc2=O)o1
- RP-LC retention time: 588 s

SMILES: CCCN1C(=O)COc2ccc(-c3noc(C4CC(=O)N(c5ccc(C)cc5)C4)n3)cc21 (stereo not drawn)
- RP-LC retention time: 941 s

SMILES: O=C(NCCN1CCOCC1)c1ccc2nc(Cc3ccccc3)oc2c1
- RP-LC retention time: 631 s

SMILES: Cc1ccc(Cn2nnc(C(=O)N3CCSCC3)c2-n2cccc2)cc1
- RP-LC retention time: 956 s

SMILES: O=C(NCc1ccc(F)cc1)C1CCN(c2cc(N3CCSCC3)ncn2)CC1
- RP-LC retention time: 666 s

SMILES: Clc1nnc2c3ccccc3ccn12
- RP-LC retention time: 747 s

SMILES: CCOC(=O)c1nc(NCc2ccccc2Cl)c2ccccc2n1
- RP-LC retention time: 834 s

SMILES: Clc1ccc(-c2nnc(Cc3nc(-c4cccs4)no3)o2)cc1
- RP-LC retention time: 1000 s

SMILES: O=S(=O)(Nc1ccc(F)cc1)c1ccccc1-c1nc(-c2ccccc2)no1
- RP-LC retention time: 1140 s

SMILES: CO[C@H]1C(=O)N(C(C)C)[C@H]1C1CCN(S(=O)(=O)c2cccc(F)c2)CC1
- RP-LC retention time: 860 s

SMILES: O=C(Cn1nc(C(=O)N2CCCC2)c2ccccc21)NCCc1cccs1
- RP-LC retention time: 775 s

SMILES: COCCn1nc2n(c1=O)CCN(C(=O)c1ccco1)CC2
- RP-LC retention time: 585 s

SMILES: CCOC(=O)C(C)NC(=O)N1CCN(c2nc3ccccc3n2CC)CC1 (stereo not drawn)
- RP-LC retention time: 609 s

SMILES: Cc1ccc2c(Nc3ccc(F)c(C)c3)c(-c3nc(C)no3)cnc2n1
- RP-LC retention time: 764 s

SMILES: CCCS(=O)(=O)N1CCOc2ccc(CN3CCc4ccccc4C3)cc2C1
- RP-LC retention time: 596 s

SMILES: CS(=O)(=O)N1CCC(C(=O)N2CC(c3nc(-c4ccccn4)no3)C2)CC1
- RP-LC retention time: 579 s

SMILES: CC(C)[C@H](C(=O)Nc1ccc(C(=O)NO)cc1)c1ccccc1
- RP-LC retention time: 791 s

SMILES: CCn1cnc(S(=O)(=O)N2CCCC(C(=O)Nc3ccc(C)c(C)c3)C2)c1 (stereo not drawn)
- RP-LC retention time: 800 s

SMILES: Cc1ccc(-c2[nH]ncc2CNS(=O)(=O)c2cccc3nsnc23)cc1C
- RP-LC retention time: 802 s

SMILES: Cc1ccc(NC(=O)C2CCCN(c3ncnc4c3nc3n4CCCCC3)C2)nc1 (stereo not drawn)
- RP-LC retention time: 699 s

SMILES: Cc1ccccc1-c1ccc(N2CCCC(C(=O)NC(C)CCc3ccccc3)C2)nn1 (stereo not drawn)
- RP-LC retention time: 817 s

SMILES: CN(Cc1ccccc1)C(=O)c1cn2ccncc2n1
- RP-LC retention time: 678 s

SMILES: CCC(C)NC(=O)C1c2cc(OC)c(OC)cc2C(=O)N(C)C1c1ccc(OC)c(OC)c1 (stereo not drawn)
- RP-LC retention time: 710 s

SMILES: Cc1ccc(NC(=O)Cn2c(=O)cc(-c3nc(C)no3)c3ccccc32)c(C)c1
- RP-LC retention time: 972 s

SMILES: Cc1ccccc1NC(=O)C1CCN(S(=O)(=O)c2c(C)[nH]c(C)c2C(=O)N2CCCC2)CC1
- RP-LC retention time: 675 s

SMILES: Cc1ccc(-c2c(C(=O)NCC3CCCO3)nc3ccccn23)cc1 (stereo not drawn)
- RP-LC retention time: 730 s

SMILES: CNC(=O)c1nn(-c2ccc(F)c(F)c2)c(OC)cc1=O
- RP-LC retention time: 651 s

SMILES: COc1ccc(N2CC(c3nc(-c4cccc(C(F)(F)F)c4)no3)CC2=O)cc1OC (stereo not drawn)
- RP-LC retention time: 966 s

SMILES: O=C(Nc1cccnc1)C1CCCN(S(=O)(=O)c2c[nH]c(C(=O)N3CCCC3)c2)C1 (stereo not drawn)
- RP-LC retention time: 594 s

SMILES: Cc1nc(Nc2ccc(Cl)cn2)sc1C(=O)NCCN(C)C
- RP-LC retention time: 602 s

SMILES: O=C(NC1CCCCC1)C1c2ccccc2C(=O)N1Cc1ccc2c(c1)OCO2 (stereo not drawn)
- RP-LC retention time: 860 s

SMILES: CC1=C(C(=O)N(CC(=O)NCc2ccccc2)c2ccc(Cl)cc2)SCCO1
- RP-LC retention time: 934 s

SMILES: COc1ccc(C2(C(=O)N3CCCC(c4nc(-c5ccc(NC(C)=O)cc5)no4)C3)CC2)cc1 (stereo not drawn)
- RP-LC retention time: 835 s

SMILES: O=C(NC1CCCC1)C1CCCN(c2ccc3cc(S(=O)(=O)N4CCCCC4)ccc3n2)C1 (stereo not drawn)
- RP-LC retention time: 781 s

SMILES: COc1ccc2c(c1)C1(CCN(C(=O)Nc3ccccc3OC)C1)C(=O)N2C (stereo not drawn)
- RP-LC retention time: 808 s

SMILES: Cc1ccc(-c2noc(C3CC(=O)N(c4ccc5c(c4)OCO5)C3)n2)cc1 (stereo not drawn)
- RP-LC retention time: 955 s

SMILES: O=C(c1ccccc1)N1CCc2cc(CNS(=O)(=O)c3ccccc3)ccc21
- RP-LC retention time: 819 s

SMILES: COCCNC(=O)c1coc(NC(=O)c2cnccn2)n1
- RP-LC retention time: 548 s

SMILES: CCc1cc(=O)n(CC(=O)Nc2cccc(C)c2C)c(N)n1
- RP-LC retention time: 608 s

SMILES: COCC1CN(Cc2cn[nH]c2-c2ccccc2)CCC1(F)F (stereo not drawn)
- RP-LC retention time: 609 s

SMILES: Cc1cc(=O)n(CC(=O)Nc2cccc(C)c2C)c(NCCCc2ccccc2)n1
- RP-LC retention time: 892 s

SMILES: Cc1cc(C)nc(Nc2nc(-c3ccccc3)c3ccccc3n2)n1
- RP-LC retention time: 709 s

SMILES: CC(C)c1ccc(NC(=O)C2CCN(S(=O)(=O)c3ccc4c(c3)sc(=O)n4C)CC2)cc1
- RP-LC retention time: 993 s

SMILES: Cc1c(CC(=O)N2CCC(C(N)=O)CC2)c(=O)oc2cc3occ(C(C)(C)C)c3cc12
- RP-LC retention time: 785 s

SMILES: O=C(Nc1ccc(N2CCCN(C(=O)C3CC3)CC2)cc1)c1ccc(=O)[nH]c1
- RP-LC retention time: 595 s

SMILES: Cc1sc(-c2noc(C(C)C)n2)cc1S(=O)(=O)N1CCC(C(=O)Nc2cccc(C#N)c2)CC1
- RP-LC retention time: 1090 s

SMILES: Cc1ccc(CNC(=O)C2(C)CN(S(C)(=O)=O)CC(=O)N2CCCc2ccccc2)cc1 (stereo not drawn)
- RP-LC retention time: 927 s

SMILES: Cc1cccc(CNC(=O)C2CCN(S(=O)(=O)c3ccc4c(c3)sc(=O)n4C(C)C)CC2)c1
- RP-LC retention time: 985 s

SMILES: O=C(c1ccoc1)N1CCCC(c2nnc3n2CCN(C(=O)C2CC2)C3)C1 (stereo not drawn)
- RP-LC retention time: 591 s

SMILES: O=C(C1=NN(Cc2ccccc2)c2ccccc2S1(=O)=O)N1CCCCCC1
- RP-LC retention time: 974 s

SMILES: COc1ccc(NC(=O)c2cc(C(C)(C)C)n3nccc3n2)c(C)c1
- RP-LC retention time: 1240 s

SMILES: Cc1ccc(C)c(CNC(=O)c2cn3c(n2)CCCC3)c1
- RP-LC retention time: 622 s

SMILES: CCn1c(CCNC(=O)c2ccc(C)c(C)c2)nc2cccnc21
- RP-LC retention time: 661 s

SMILES: COc1ccc(NC(=O)c2c(C)oc3nc(C)nc(N4CCOCC4)c23)cc1
- RP-LC retention time: 706 s
